Earlier results in patent US6060616A, “Bis-platinum complexes with polymethylene derivatives as ligands having antitumor activity” (Hoffmann-La Roche Inc., priority 1998, dated 2000).

Conditions: clinical use, background

In the case of `N.N.O=C([O-])C1(C(=O)[O-])CCC1.[Pt+2]` [carboplatin, [Pt(NH3)2(CBDCA)]], the nephrotoxicity is given as “reduction in the nephrotoxic effects”.
